US20050170481A1, “Novel (d)-2-hydroxy-acid oxidase derived from microorganism and biochemical process for producing glyoxylic acid therewith” (priority 2002, published 2005)

What was measured:
[1] = system: (D)-2-hydroxy-acid oxidase (enzyme of the present invention); assay: Oxidase reaction activity (H2O2 / 4-AA / TOOS / POD, absorbance at 555 nm), substrate specificity; type: biochemical, Arthrobacter sp. KNK-GA1 strain; settings: for Relative activity (%): Table 2, 30° C., 100 seconds; for activity of the (D)-2-hydroxy-acid oxidase for the substrate (in words): summary of Table 1
Protocol: The reaction activity of oxidase is basically measured by adding 0.1 ml of an enzyme solution to 0.9 ml of a 100 mM phosphate buffer (pH 7) having the composition below, and measuring an increase in absorbance at a wavelength of 555 nm at 30° C. In the present invention, when 1 μmol of H2O2 is produced for 1 minute, the enzyme activity is defined as 1 unit.
The enzymatic properties of the enzyme produced in Example 6 were measured.
(§1) The enzyme activity was basically measured by reacting 1.0 ml of a reaction solution containing 10 mM of a substrate such as glycolic acid, 0.67 mM of 4-AA, 1.09 mM of TOOS, 2 U/ml of POD, and 0.1 ml of an enzyme solution in a 100 mM phosphate buffer or Tris buffer at 30° C. for 100 seconds, and then measuring an increase in absorbance at a wavelength of 555 nm.

[2] = system: glycolate oxidase; settings: Table 1; activity for glycolic acid regarded as 100%; J. Phycol., 32, 790-798, 1996; cited from earlier work
[3] = system: glycolate oxidase; settings: Table 1; activity for glycolic acid regarded as 100%; J. Biochem., 16, 1373-1378, 1984; cited from earlier work
[4] = molecular target: T1, glycolate oxidase (produced by Sigma Corporation) derived from spinach (Spinacia oleracea, UniProt P05414); assay: Substrate specificity of glycolate oxidase derived from spinach; type: biochemical
T1 construct: purchased Sigma Corporation
T1 sequence (P05414 1-369): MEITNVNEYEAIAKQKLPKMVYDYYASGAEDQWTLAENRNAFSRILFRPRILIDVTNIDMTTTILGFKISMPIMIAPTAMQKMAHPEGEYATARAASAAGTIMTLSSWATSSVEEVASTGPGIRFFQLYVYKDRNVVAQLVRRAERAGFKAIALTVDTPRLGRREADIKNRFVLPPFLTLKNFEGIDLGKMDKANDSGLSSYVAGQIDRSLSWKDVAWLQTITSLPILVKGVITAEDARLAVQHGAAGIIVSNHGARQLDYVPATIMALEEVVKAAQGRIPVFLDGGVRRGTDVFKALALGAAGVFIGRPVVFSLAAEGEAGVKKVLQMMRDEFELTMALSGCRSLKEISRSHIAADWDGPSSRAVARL
Protocol: In Table 1, the activity of each enzyme for glycolic acid is […] regarded as 100%.
as §1
The activity of glycolate oxidase (produced by Sigma Corporation) derived from spinach was examined for various 2-hydroxy acid compounds, and the results were compared with the results of the enzyme of the present invention produced in Example […].

[5] = system: lactic acid oxidase derived from soil gram-negative bacteria; settings: Appl. Biochem. Biotechnol., 56, 277-288, 1996; cited from earlier work
[6] = Table 1, activity for glycolic acid regarded as 100%

Row | Molecule | Relative activity (%) ([1]; Substrate 10 mM) | Relative activity (%), Enzyme of this invention [1, 6] [%] | Relative activity (%), Enzyme of this invention ([1]; Table 3, Substrate 10 mM) [%] | Relative Activity (%), Spatoglossum pacificum [2] [%] | Relative Activity (%), Lemna minor [3] [%] | Relative activity (%), Spinach [4, 6] [%] | Relative activity (%), Spinach ([4]; Table 3, Substrate 10 mM) [%] | activity of the (D)-2-hydroxy-acid oxidase for the substrate (in words) [1] | activity for L-lactic acid as rate of the activity for D-lactic acid [5] [%]
1 | 1-propanol | 0 |  |  |  |  |  |  |  | 
2 | CCC(O)C(=O)O (racemic) [DL-2-hydroxybutyric acid] | 42 | 42 | 42 | 55 | 57 | 71 | 71 |  | 
3 | CCCCC(O)C(=O)O (racemic) [DL-2-hydroxycaproic acid] | 7 | 7 | 7 |  | 13 | 29 | 29 |  | 
4 | CC(C)CC(O)C(=O)O (racemic) [DL-2-hydroxyisocaproic acid] | 10 | 10 | 10 |  |  | 51 | 51 | shows activity | 
5 | CCCC(O)C(=O)O (racemic) [DL-2-hydroxyvaleric acid] | 32 | 32 | 32 | 91 | 52 | 70 | 70 |  | 
6 | O=C(O)C(O)CO (racemic) [DL-glyceric acid] | 54 |  | 54 |  |  |  | 76 |  | 
7 | O=C(O)CC(O)C(=O)O (racemic) [DL-malic acid] | 0 |  |  |  |  |  |  |  | 
8 | CC(O)CO (stereo not shown) [1,2-propanediol] | 0 |  |  |  |  |  |  |  | 
9 | CC(C)O [2-propanol] | 0 |  |  |  |  |  |  |  | 
10 | C[C@@H](O)C(=O)O [D-lactic acid] | 82 | 82 | 82 | 0 | 7 | 0 | 0 | high activity | 
11 | CCO [Ethanol] | 0 |  |  |  |  |  |  |  | 
12 | OCCO [Ethylene glycol] | 0 |  |  |  |  |  |  |  | 
13 | OCC(O)CO [Glycerin] | 0 |  |  |  |  |  |  |  | 
14 | O=C(O)CO [Glycolic acid] | 100 | 100 | 100 | 100 | 100 | 100 | 100 | high activity | 
15 | O=CC(=O)O [Glyoxylic acid] |  | 4 |  | 14 | 35 | 8 |  | relatively low activity | 
16 | CC(C)C[C@H](O)C(=O)O [L-2-hydroxyisocaproic acid] | 0 | 0 | 0 | 77 | 30 | 68 | 68 | no activity | 
17 | C[C@H](O)C(=O)O [L-lactic acid] | 0 | 0 | 0 | 26 | 60 | 81 | 81 | no activity | 57
18 | CO [Methanol] | 0 |  |  |  |  |  |  |  | 
19 | O=C(O)CCO [β-hydroxypropionic acid] | 1 |  |  |  |  |  |  |  | 
